Source: PMC12769565, “Design, synthesis and biological activity of glycoconjugated ADAMTS5 exosite inhibitors: applications in osteoarthritis and ovarian cancer models” (Scientific Reports, 2025)

Assays:
ADAMTS5 = conditions: reported zinc-chelating inhibitors; cited from earlier work
HEK293 = system: HEK293; parameters: method as in ChEMBL; conditions: ref ChEMBL, cited from earlier work; for EC50: read-out: EC50 (Standard Value)
HEK293T cells = experiment: Cell viability MTS assay; type: cell-based, human; conditions: 100 µM; 72 h; vs DMSO control
Procedure: (§1) Cell viability was assessed using CellTiter® 96 Aqueous One Solution Cell Proliferation Assay (Promega, G3582) following the manufacturer’s protocol. The assay is based on the reduction of [3-(4,5-dimethylthiazol-2-yl)-5-(3-carboxymethoxyphenyl)-2-(4-sulfophenyl)-2 H-tetrazolium] (MTS) and phenazine ethosulfate into formazan. Compounds 2 and 4b, GM6001 (Merck, 364206) (10–100 µM), or DMSO control were incubated in 48-well Nunc™ plates (Thermo Fisher Scientific,150687) with HEK293T cells, human non-OA chondrocytes, porcine cartilage explants, or human OA cartilage explants for 72 h. At least 3 independent experiments were carried out with 3 technical replicates each. For experiments involving human samples, independent experiments were carried out on 3 different donors. Absorbance at 490 nm was measured on a SpectraMax i3x Multi-Mode Platform (Molecular Devices). Cell viability was normalized to DMSO controls.

[1] = system: human non-OA chondrocytes; experiment: Cell viability MTS assay; type: cell-based; conditions: 100 µM; 72 h; vs DMSO control
Procedure: Non-OA human chondrocytes were isolated from knee cartilage tissues obtained from the Stanmore BioBank, Institute of Orthopaedics, Royal National Orthopaedic Hospital, Stanmore, UK, from 3 donors following informed consent and approval by the Royal Veterinary College Ethics and Welfare Committee (Institutional approval URN 2012 0048 H) as before.
as §1

[2] = system: porcine cartilage explants; experiment: Cell viability MTS assay; type: cell-based, pig; conditions: 100 µM; 72 h; vs DMSO control
Procedure: Porcine articular cartilage from the joints of 3–9 month old pigs was supplied by a local abattoir within 2 h of slaughter and dissected into small pieces approximately 3 mm long and 3–4 mm wide. Each piece weighed roughly 10 mg. After dissection, the cartilage was allowed to acclimatize for 24 h at 37 °C under 5% CO2 in Dulbecco’s Modified Eagle Medium (DMEM) containing 100 U/ml penicillin, 100 µg/ml streptomycin, 10% fetal bovine serum (FBS).
as §1

ADAMTS4 [3] = target: T1, ADAMTS4 (Homo sapiens, UniProt O75173); experiment: QF peptide cleavage assay (peptidolytic activity); type: biochemical; conditions: compared to DMSO control
T1 construct: Human recombinant full-length FLAG-tagged ADAMTS4 and ADAMTS5 were expressed in HEK293T cells; FLAG; made in house; host or cells: HEK293T cells
T1 sequence (O75173 213-837): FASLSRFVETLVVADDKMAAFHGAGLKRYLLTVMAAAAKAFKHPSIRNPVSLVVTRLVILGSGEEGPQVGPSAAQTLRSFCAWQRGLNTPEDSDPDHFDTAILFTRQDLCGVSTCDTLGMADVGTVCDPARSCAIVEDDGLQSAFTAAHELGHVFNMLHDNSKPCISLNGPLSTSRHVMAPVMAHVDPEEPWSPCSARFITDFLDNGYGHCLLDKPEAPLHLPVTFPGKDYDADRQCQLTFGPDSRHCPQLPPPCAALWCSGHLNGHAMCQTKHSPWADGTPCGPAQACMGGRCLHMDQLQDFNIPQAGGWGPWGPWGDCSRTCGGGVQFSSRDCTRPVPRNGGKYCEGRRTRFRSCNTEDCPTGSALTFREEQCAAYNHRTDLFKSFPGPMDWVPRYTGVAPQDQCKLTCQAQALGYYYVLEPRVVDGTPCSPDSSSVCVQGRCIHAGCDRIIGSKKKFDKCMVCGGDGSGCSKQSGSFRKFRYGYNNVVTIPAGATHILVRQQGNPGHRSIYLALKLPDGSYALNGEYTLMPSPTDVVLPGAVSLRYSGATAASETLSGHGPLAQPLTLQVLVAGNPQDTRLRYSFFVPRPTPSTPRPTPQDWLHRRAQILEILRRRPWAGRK
Procedure: (§2) Human recombinant full-length FLAG-tagged ADAMTS4 and ADAMTS5 were expressed in HEK293T cells (Thermo Fisher Scientific) and purified by anti-FLAG immunoaffinity chromatography as before. Concentrations of active proteases were determined by active-site titrations with known concentrations of TIMP-3 (Bio-Techne, 973-TM-010), using QF peptides as substrates. V1-5GAG, a truncated version of versican V1 isoform comprising residues 21–694 and containing a C-terminal 6x His tag[67], was expressed in HE293T cells and purified by immobilized metal affinity chromatography as before.
QF peptide cleavage assays were conducted in TNC-B (50 mM Tris–HCl, pH 7.5, 150 mM NaCl, 10 mM CaCl2, and 0.02% NaN3) on a SpectraMax i3x Multi-Mode Platform (Molecular Devices, UK) in a total volume of 20 µl at 37℃ as before. ADAMTS4 (3.5 nM) or ADAMTS5 (4 nM) were incubated with compounds 1–4 (100 µM, diluted in TNC-B from 10 mM DMSO stocks) or DMSO for 1 h at 37 ℃ before addition of QF peptides fluorescein-5(6)-carbonyl-[…]N, N,N0,N0-tetramethyl-6-carboxyrhodamine, and fluorescein-5(6)-carbonyl-Thr-Glu-Ser-Glu - […]N, N,N0,N0-tetramethyl-6-carboxyrhodamine, respectively, each at 40 µM. Fluorescence intensity was recorded with an excitation wavelength of 485 nm and an emission wavelength of 535 nm every min for 2 h, expressed as relative fluorescence units and normalized against a blank containing only buffer and substrate. Fluorescence values were converted into residual activity by fixing as 100% the activity of the reactions containing an equal concentration (v/v) of DMSO instead of compound (DMSO control).

ADAMTS4 [4] = target: T1, ADAMTS4; experiment: Versicanase assay (V1-5GAG, versikine sandwich ELISA); type: biochemical; conditions: compared to DMSO control
Procedure: as §2
Compounds 1–4 (100 µM) or DMSO were incubated with ADAMTS4 (5 nM) or ADAMTS5 (0.4 nM) for 2 h at 37 °C, before addition of V1-5GAG (50 nM). At each time point, reactions were stopped by addition of ethylenediaminetetraacetic acid and ADAMTS-generated versican fragments (versikine) quantified by sandwich ELISA as before[29],[30],[38] using anti-DPEAAE neoepitope antibody (Life Technologies, PA1-1748 A, 5 µg/ml) and polyclonal anti-versican antibody (Abcam, ab171887, 3 µg/ml). For each reaction, the amount of versikine generated was derived from a standard curve (0–1.56 nM) of V1-5GAG completely digested with ADAMTS5. Initial velocities were calculated from the concentration of versikine generated as a function of reaction time. Percent of inhibition was calculated from the DMSO control reactions. IC50 values were determined using the formula: vi/v0 = 1/(1 + [I]/IC50) where vi is the initial velocity of substrate cleavage in the presence of the inhibitor at concentration [I] and v0 is the initial velocity in the presence of an equal concentration (v/v) of DMSO.

In the case of `CC1C(NS(=O)(=O)N2CCc3c(nc4cc(F)ccn34)C2)(C(=O)O)C1(C)c1ccccc1` (centres unmarked) [A], the IC50 (ADAMTS5) is given as 8.4 nM.
For `C[C@H]1CN(C(=O)CC[C@@]2(C3CC3)NC(=O)NC2=O)CCN1c1cc(F)cc(F)c1` [B, GLPG 1972], the IC50 (ADAMTS5) is given as 19 nM.
For `COc1cc(/C=C/C(=O)CC(=O)/C=C/c2ccc(O)c(O)c2)ccc1O` [CHEMBL103410], the EC50 (HEK293) is given as 36 µM.
For `O=C(/C=C/c1ccccc1)c1ccc(O)cc1O` [CHEMBL105310], the IC50 (HEK293; read-out: IC50 (Standard Value)) is listed as 109 µM.
For `O=C(/C=C/c1ccc(O)cc1)CC(=O)/C=C/c1ccc(O)cc1` [CHEMBL105350], the EC50 (HEK293) is given as 200 µM.
For `C=CCCNc1nc(NCc2csc(-c3cccs3)n2)nc(N2CCC[C@@H]2CNS(=O)(=O)c2ccc(CCC)cc2)n1` [C], the IC50 (ADAMTS5) is listed as 30 nM.
For `CNC(=O)[C@H](Cc1c[nH]c2ccccc12)NC(=O)[C@@H](CC(=O)NO)CC(C)C` [GM6001, reference compound], the “inhibition of cell viability” value (HEK293T cells) was “Neither 2, nor the broad-spectrum zinc-chelating metalloproteinase inhibitor GM6001[40] had an effect on cell viability”, the “inhibition of cell viability” value [1] was “No significant effect” and the “decrease of cell viability” value [2] was “did not exhibit cytotoxicity”.
With `CCC(C)N(Cc1cn(CCCCCCO[C@@H]2O[C@H](CO)[C@@H](O)[C@H](O)[C@H]2NC(C)=O)nn1)S(=O)(=O)c1ccc(-c2ccccc2)cc1` (stereo partly drawn) [compound 1, N-((2R,3R,4R,5 S,6R)-2-((6-(4-((N-(sec-butyl)-[1,1’-biphenyl]-4-sulfonamido)methyl)-1H-1,2,3-triazol-1-yl)hexyl)oxy)-4,5-dihydroxy-6-(hydroxymethyl)tetrahydro-2 H-pyran-3-yl)acetamide] the inhibition at 100 µM (ADAMTS4 [3]) was 42%.
With `CCC(C)N(Cc1cn(CCCO[C@@H]2O[C@H](CO[C@@H]3O[C@H](CO)[C@@H](O[C@@H]4O[C@H](CO)[C@H](O)[C@H](O)[C@H]4O)[C@H](O)[C@H]3O)[C@@H](O)[C@H](O)[C@H]2NC(C)=O)nn1)S(=O)(=O)c1ccc(-c2ccccc2)cc1` (stereo partly drawn) [compound 4, N-((2R,3R,4R,5 S,6R)-2-(3-(4-((N-(sec-butyl)-[1,1’-biphenyl]-4-sulfonamido)methyl)-1 H-1,2,3-triazol-1-yl)propoxy)-6-((((2R,3R,4R,5 S,6R)-3,4-dihydroxy-6-(hydroxymethyl)-5-(((2 S,3R,4 S,5R,6R)-3,4,5-trihydroxy-6-(hydroxymethyl)tetrahydro-2 H-pyran-2-yl)oxy)tetrahydro-2 H-pyran-2-yl)oxy)methyl)-4,5-dihydroxytetrahydro-2 H-pyran-3-yl)acetamide] the inhibition at 100 µM (ADAMTS4 [4]) was 64%.
